Measured values reported in patent US7173049B2, “Fungicidal compositions” (Bayer Cropscience S.A., priority 2001, dated 2007).

Tested on: Plasmopara viticola
Experiment: Test against downy mildew of grapevine (preventive action)
Type: in vivo, Plasmopara viticola on grapevine plants (Chardonnay variety)
Details: alone
Text: In the compositions according to the invention, the compound (I)/compound (II) ratio is advantageously chosen so as to produce a synergistic effect. The term “synergistic effect” especially means the effect defined by S. R. Colby in an article entitled “Calcul des responses synergiques et antagonistes des combinaisons herbicides [Calculation of the synergistic and antagonist responses of herbicidal combinations]”, Weeds, (1967), 15, pages 20–22.
[formula] in which E represents the expected percentage of inhibition of the disease for the combination of the two fungicides at defined doses (for example equal to x and y, respectively), X is the percentage of inhibition observed for the disease by compound (I) at a defined dose (equal to x), Y is the percentage of inhibition observed for the disease by compound (II) at a defined dose (equal to y). When the percentage of inhibition observed for the combination is greater than E, there is a synergistic effect.
Test of a composition against downy mildew of grapevine (Plasmopara viticola; preventive action):
Grapevine plants (Chardonnay variety) are grown on sandy soil in plastic pots, with one plant per pot. The two-month-old plants (6 to 7 leaves developed) are sprayed with compound (I) and compound (II), either alone or as a mixture.
The fungicidal active materials, either alone or as a mixture, are applied at a rate of 500 liters/ha.
The compound (I)/compound (II) ratios studied are 1/10, 1/15 and 1/20.
Three days after the treatment, each plant is inoculated by spraying with an aqueous suspension of Plasmopara viticola spores obtained from contaminated leaves. The spore concentration is about 100 000 units per ml.
After contamination, the plants are incubated for two days at 18° C. under a saturated atmosphere, and then for 5 days at about 20° C. with a relative humidity of 90–100%.
Seven days after the contamination, the symptoms are evaluated in terms of extent of surface area on the underside of the leaves that are infected, relative to the untreated but contaminated plants.
The efficacy of the treatment is calculated using the Abbott formula below: […]
The concentrations of the fungicides alone or as a mixture giving 50%, 70% or 90% efficacy for each component, in the appropriate test, are determined on the basis of the model of the dose/response sigmoid curve and their corresponding confidence intervals. The results are analysed using the Tammes or Colby model.

Row | SMILES | % Efficacy (100 mg/l) [%] | % Efficacy (150 mg/l) [%] | % Efficacy (200 mg/l) [%] | % Efficacy (1000 mg/l) [%] | % Efficacy (1500 mg/l) [%] | % Efficacy (2000 mg/l) [%] | % Efficacy (70 mg/l) [%] | % Efficacy (105 mg/l) [%] | % Efficacy (140 mg/l) [%] | % Efficacy (700 mg/l) [%] | % Efficacy (1050 mg/l) [%] | % Efficacy (1400 mg/l) [%] | % Efficacy (10 mg/l, preventive, 7 days after contamination) [%]
1 | CCO[PH](=O)O.[Al] [Compound (IIb), aluminium ethyl hydrogen phosphonate, reference compound] | 0 | 0 | 0 | 46 | 60 | 81 |  |  |  |  |  |  | 
2 | OP(O)O [Compound (IIa), phosphorous acid] |  |  |  |  |  |  | 0 | 0 | 0 | 4 | 50 | 52 | 
3 | O=C(NCc1ncc(C(F)(F)F)cc1Cl)c1c(Cl)cccc1Cl [Compound (Ia), 2,6-dichloro-N-{[3-chloro-5-(tri-fluoromethyl)-2-pyridinyl]methyl}benzamide] | 100 |  |  |  |  |  |  |  |  |  |  |  | 77
